Reference: US10501499B2 (priority 2012, dated 2019)

What follows are sequences tested on human PBMCs.
Assay type: cell-based
RGTANWARVISRANWAKVILRNWAKVI [BI330-83c] was tested, and the “Intracellular Uptake” value was 154.43.
“RGTANWARVISRGANWAKVILRNWAKVI [BI330-83d]” was tested, and the “Intracellular Uptake” value was 52.14.
In the case of “RGTANWARVISRRANWAKVILRNWAKVI [BI330-83b]”, the “Intracellular Uptake” value is reported as 120.10.
RGYLPAVGAPIRRRVIRVIAHGLRLR [BI310-511] was tested, and the “Intracellular Uptake” value was 22.62.
RGYLPAVGAPIRRVIRVIAHGLRL [BI310-511g] was tested, and the “Intracellular Uptake” value was 66.74.
In the case of RGYLPAVGAPIRRVIRVIAHGLRLR [BI310-511e], the “Intracellular Uptake” value is reported as 44.59.
For RGYLPAVGAPIRVIRVIAHGLRLR [BI310-511f], the “Intracellular Uptake” value was 26.85.
In the case of RRGTANWARVISRANWAKVILRNWAKVI [BI330-83], the “Intracellular Uptake” value is reported as 194.69.
RRGYLPAVGAPIRRRVIRVIAHGLRL [BI310-511c] was tested, and the “Intracellular Uptake” value was 31.83.
For RRGYLPAVGAPIRRVIRVIAHGLRL [BI310-511d], the “Intracellular Uptake” value was 70.64.
In the case of RRGYLPAVGAPIRRVIRVIAHGLRLR [BI310-511b], the “Intracellular Uptake” value is reported as 67.29.

Tested on: human PBMCs
Assay type: cell-based
Remark: another data set of the same source
With RGTANWARVISRANWAKVILRNWAKVI [BI330-83c] the “Extracellular Uptake” value was 435.66.
In the case of “RGTANWARVISRGANWAKVILRNWAKVI [BI330-83d]”, the “Extracellular Uptake” value is reported as 267.38.
With “RGTANWARVISRRANWAKVILRNWAKVI [BI330-83b]” the “Extracellular Uptake” value was 518.60.
For RGYLPAVGAPIRRRVIRVIAHGLRLR [BI310-511], the “Extracellular Uptake” value was 227.46.
For RGYLPAVGAPIRRVIRVIAHGLRL [BI310-511g], the “Extracellular Uptake” value was 171.31.
In the case of RGYLPAVGAPIRRVIRVIAHGLRLR [BI310-511e], the “Extracellular Uptake” value is reported as 473.80.
For RGYLPAVGAPIRVIRVIAHGLRLR [BI310-511f], the “Extracellular Uptake” value was 178.61.
In the case of RRGTANWARVISRANWAKVILRNWAKVI [BI330-83], the “Extracellular Uptake” value is reported as 364.04.
RRGYLPAVGAPIRRRVIRVIAHGLRL [BI310-511c] was tested, and the “Extracellular Uptake” value was 203.62.
For RRGYLPAVGAPIRRVIRVIAHGLRL [BI310-511d], the “Extracellular Uptake” value was 267.15.
For RRGYLPAVGAPIRRVIRVIAHGLRLR [BI310-511b], the “Extracellular Uptake” value was 466.71.
